In PubChem BioAssay AID2060601 (Molecular Pharmacology Branch, DTP, NCI, 2025):

System: 874868-142-R-J2-PDC complex spheroids, growth % test/control
Test: Anticancer human tumor 874868-142-R-J2-PDC patient-derived head and neck squamous carcinoma cell line growth inhibition [CLK]
Conditions: for IC50: curve of first compound; for viability, T/C: stronger effect = lower value
Procedure, shortened: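 Patient-derived tumor cells grown as complex spheroids with HUVEC endothelial cells and mesenchymal stem cells, treated with drug combinations. Concentrations descend in half-log steps from near clinical Cmax, or from 10 microM if Cmax unknown.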

[1] = second compound 0.0316 µM, first compound 0.0316 µM
[2] = second compound 0.0316 µM, first compound 0.1 µM
[3] = second compound 0.0316 µM, first compound 0.316 µM
[4] = second compound 0.0316 µM, first compound 1 µM
[5] = second compound 0.0316 µM, first compound 3.16 µM
[6] = second compound 0.0316 µM, first compound 10 µM
[7] = second compound 0.1 µM, first compound 0.0316 µM
[8] = second compound 0.1 µM, first compound 0.1 µM
[9] = second compound 0.1 µM, first compound 0.316 µM
[10] = second compound 0.1 µM, first compound 1 µM
[11] = second compound 0.1 µM, first compound 3.16 µM
[12] = second compound 0.1 µM, first compound 10 µM
[13] = second compound 0.316 µM, first compound 0.0316 µM
[14] = second compound 0.316 µM, first compound 0.1 µM
[15] = second compound 0.316 µM, first compound 0.316 µM
[16] = second compound 0.316 µM, first compound 1 µM
[17] = second compound 0.316 µM, first compound 3.16 µM
[18] = second compound 0.316 µM, first compound 10 µM
[19] = second compound 1 µM, first compound 0.0316 µM
[20] = second compound 1 µM, first compound 0.1 µM
[21] = second compound 1 µM, first compound 0.316 µM
[22] = second compound 1 µM, first compound 1 µM
[23] = second compound 1 µM, first compound 3.16 µM
[24] = second compound 1 µM, first compound 10 µM
[25] = second compound 3.16 µM, first compound 0.0316 µM
[26] = second compound 3.16 µM, first compound 0.1 µM
[27] = second compound 3.16 µM, first compound 0.316 µM
[28] = second compound 3.16 µM, first compound 1 µM
[29] = second compound 3.16 µM, first compound 3.16 µM
[30] = second compound 3.16 µM, first compound 10 µM
[31] = second compound 10 µM, first compound 0.0316 µM
[32] = second compound 10 µM, first compound 0.1 µM
[33] = second compound 10 µM, first compound 0.316 µM
[34] = second compound 10 µM, first compound 1 µM
[35] = second compound 10 µM, first compound 3.16 µM
[36] = second compound 10 µM, first compound 10 µM
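Further: spheroids exposed to the compounds for 7 days.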
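Wherever viability, T/C is given: 100% = DMSO vehicle control viability.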

Compound: C#Cc1c(F)ccc2cc(O)cc(-c3ncc4c(N5CC6CCC(C5)N6)nc(OCC56CCCN5CC(F)C6)nc4c3F)c12 (stereo unspecified) + CNC(=O)c1ccc(Nc2nc(OC3CCCC3)c3c(-c4ccc5nc(C)oc5c4)c[nH]c3n2)c(OC)c1
- IC50 (second compound 0.0316 µM): 6560 nM
- IC50 (second compound 0.1 µM): 862 nM
- IC50 (second compound 0.316 µM): 89.5 nM
- IC50 (second compound 1 µM): < 31.6 nM
- IC50 (second compound 3.16 µM): < 31.6 nM
- IC50 (second compound 10 µM): < 31.6 nM
- viability, T/C [1]: 92.7%
- viability, T/C [2]: 75.7%
- viability, T/C [3]: 80.7%
- viability, T/C [4]: 65%
- viability, T/C [5]: 54.3%
- viability, T/C [6]: 47.1%
- viability, T/C [7]: 72.5%
- viability, T/C [8]: 84.5%
- viability, T/C [9]: 66.5%
- viability, T/C [10]: 48.4%
- viability, T/C [11]: 51%
- viability, T/C [12]: 43.3%
- viability, T/C [13]: 58.1%
- viability, T/C [14]: 48.5%
- viability, T/C [15]: 44.2%
- viability, T/C [16]: 43%
- viability, T/C [17]: 39.8%
- viability, T/C [18]: 39%
- viability, T/C [19]: 41.6%
- viability, T/C [20]: 39.4%
- viability, T/C [21]: 36.5%
- viability, T/C [22]: 35.2%
- viability, T/C [23]: 35.1%
- viability, T/C [24]: 31.6%
- viability, T/C [25]: 37.1%
- viability, T/C [26]: 37.8%
- viability, T/C [27]: 31.1%
- viability, T/C [28]: 30%
- viability, T/C [29]: 30.5%
- viability, T/C [30]: 33.8%
- viability, T/C [31]: 35.8%
- viability, T/C [32]: 37.4%
- viability, T/C [33]: 33.9%
- viability, T/C [34]: 32.6%
- viability, T/C [35]: 32.4%
- viability, T/C [36]: 26.8%

Compound: C=C(F)C(=O)N1CCN(c2nc(OCC3CCCN3C)nc3c2CCN(c2cccc4cccc(Cl)c24)C3)CC1CC#N (stereo unspecified) + CNC(=O)c1ccc(Nc2nc(OC3CCCC3)c3c(-c4ccc5nc(C)oc5c4)c[nH]c3n2)c(OC)c1
- IC50 (second compound 0.0316 µM): 3460 nM
- IC50 (second compound 0.1 µM): 3370 nM
- IC50 (second compound 0.316 µM): < 31.6 nM
- IC50 (second compound 1 µM): < 31.6 nM
- IC50 (second compound 3.16 µM): < 31.6 nM
- IC50 (second compound 10 µM): < 31.6 nM
- viability, T/C [1]: 91.7%
- viability, T/C [2]: 70.4%
- viability, T/C [3]: 89.3%
- viability, T/C [4]: 68.4%
- viability, T/C [5]: 56.8%
- viability, T/C [6]: 0.28%
- viability, T/C [7]: 71.2%
- viability, T/C [8]: 68.8%
- viability, T/C [9]: 65.9%
- viability, T/C [10]: 61.6%
- viability, T/C [11]: 54.6%
- viability, T/C [12]: 0.63%
- viability, T/C [13]: 50.5%
- viability, T/C [14]: 49.2%
- viability, T/C [15]: 47.6%
- viability, T/C [16]: 43.8%
- viability, T/C [17]: 38.5%
- viability, T/C [18]: 1.18%
- viability, T/C [19]: 44.4%
- viability, T/C [20]: 33%
- viability, T/C [21]: 36.7%
- viability, T/C [22]: 38.5%
- viability, T/C [23]: 35.2%
- viability, T/C [24]: 0.25%
- viability, T/C [25]: 37.5%
- viability, T/C [26]: 41.8%
- viability, T/C [27]: 31%
- viability, T/C [28]: 38%
- viability, T/C [29]: 32.2%
- viability, T/C [30]: 7.83%
- viability, T/C [31]: 36.1%
- viability, T/C [32]: 35.1%
- viability, T/C [33]: 38.1%
- viability, T/C [34]: 39.1%
- viability, T/C [35]: 31.1%
- viability, T/C [36]: 3.95%

Compound: CC(CO)NC(=O)c1cc(-c2ccc(Cl)cc2)nn(-c2cnn(C)c2)c1=O (stereo unspecified) + CNC(=O)c1ccc(Nc2nc(OC3CCCC3)c3c(-c4ccc5nc(C)oc5c4)c[nH]c3n2)c(OC)c1
- IC50 (second compound 0.0316 µM): > 10000 nM
- IC50 (second compound 0.1 µM): > 10000 nM
- IC50 (second compound 0.316 µM): > 10000 nM
- IC50 (second compound 1 µM): < 31.6 nM
- IC50 (second compound 3.16 µM): < 31.6 nM
- IC50 (second compound 10 µM): < 31.6 nM
- viability, T/C [1]: 98%
- viability, T/C [2]: 90.1%
- viability, T/C [3]: 90.2%
- viability, T/C [4]: 120%
- viability, T/C [5]: 125%
- viability, T/C [6]: 104%
- viability, T/C [7]: 82.2%
- viability, T/C [8]: 90%
- viability, T/C [9]: 82.6%
- viability, T/C [10]: 85.9%
- viability, T/C [11]: 94.8%
- viability, T/C [12]: 109%
- viability, T/C [13]: 50.6%
- viability, T/C [14]: 51.4%
- viability, T/C [15]: 56.2%
- viability, T/C [16]: 48.5%
- viability, T/C [17]: 58.5%
- viability, T/C [18]: 67.4%
- viability, T/C [19]: 52.4%
- viability, T/C [20]: 38.1%
- viability, T/C [21]: 34.9%
- viability, T/C [22]: 43.1%
- viability, T/C [23]: 50.8%
- viability, T/C [24]: 50.7%
- viability, T/C [25]: 40.3%
- viability, T/C [26]: 36.8%
- viability, T/C [27]: 44.3%
- viability, T/C [28]: 41.2%
- viability, T/C [29]: 52.4%
- viability, T/C [30]: 44.4%
- viability, T/C [31]: 34.7%
- viability, T/C [32]: 36.4%
- viability, T/C [33]: 36.1%
- viability, T/C [34]: 33.7%
- viability, T/C [35]: 50.9%
- viability, T/C [36]: 42.2%
